In US8722364B2, “Method for increasing microbial catalase production” (Jiangnan University, priority 2011, dated 2014):

Assays:
[1] = system: Bacillus sp. WSHDZ-01; assay: Fermentation of Bacillus sp. WSHDZ-01 with sodium hexametaphosphate added; extracellular catalase activity of the broth by catalase assay (Aebi); type: cell-based
Description: Fermentation Culture: the fermentation process was performed in a 3 liter (L) stirred fermenter (KFT-3L, Korea) with a working volume of 1.8 L. Above 12-h-old basic flask culture was added at a concentration of 5.0% (v/v) to 1.8 L fermentation medium, and incubated under a stepwise temperature control, in which the temperature was maintained at 37° C. for the first 10 hours, at 35° C. during 10-20 hours, and at 32° C. after 20 hours. The aeration rate was 1.0 (v/v/m) (volume of air per volume of culture per minute). The shaking speed was 400 rpm. The total fermentation period was 48 to 53 hours. Proteinase inhibitors can be added during this fermentation process as described below.
(§1) Catalase activity was measured using the method described by Aebi (Aebi HE. Catalase in vitro. Method Enzymol 1984; 105:121-6). Total reaction volume is 3 ml. 0.1 ml enzyme solution was added to 2.9 ml KH2PO4—K2HPO4 buffer (pH 7.0, 10 mM KH2PO4/50 mM K2HPO4, 0.45 g/L H2O2). Decomposition rate of H2O2 was measured at 240 nm using a UV-Vis spectrophotometer. One unit of catalase activity is defined as the amount of enzyme that decomposes 1 μmol H2O2 per min at pH 7.0, 25° C.
Bacillus sp. WSHDZ-01 with accession number CCTCC NO. M206062 was used to produce catalase. Bacillus sp. WSHDZ-01 grown on a slant culture was inoculated into 50 ml of liquid seed medium in a 250 ml culture flask and cultured at 37° C., 200 rpm for 12-14 hours. 6% above liquid seed culture (v/v) was added to 80 ml basic fermentation culture in a 500 ml culture flask, and incubate at 37° C., 200 rpm, for 36-40 hours.
the fermentation process was performed in a 3 L stirred fermenter (KFT-3L, Korea) with a working volume of 1.8 L. The 12-h-old basic flask culture was added at a concentration of 5.0% (v/v) to 1.8 L fermentation medium, and incubated under a stepwise temperature control, in which the temperature was maintained at 37° C. for the first 10 hours, at 35° C. during 10-20 hours, and at 32° C. after 20 hours. The aeration rate was 1.0 (v/v/m) (volume of air per volume of culture per minute). The shaking speed was 400 rpm. The total fermentation period was 48 to 53 hours.

[2] = system: catalase; assay: Storage stability of unpurified fermentation broth (remaining extracellular catalase activity); set-up: species or system Bacillus sp. WSHDZ-01
Description: as §1
The culturing of Bacillus sp. WSHDZ-01 was performed as described under control procedure with one modification, that is, 5 g/L sodium hexametaphosphate was added at 36 hours of fermentation.
After fermentation, unpurified fermentation broth was stored at 25° C. for 12 hours. […] The broth storage stability was improved by 28.3% under the procedure with sodium hexametaphosphate.

[3] = 1 g/L added at 30 hours of fermentation
[4] = 3 g/L added at 36 hours of fermentation
[5] = 5 g/L added at 36 hours of fermentation
[6] = 7 g/L added at 36 hours of fermentation
[7] = 10 g/L added at 40 hours of fermentation

O=P1([O-])OP(=O)([O-])OP(=O)([O-])OP(=O)([O-])OP(=O)([O-])OP(=O)([O-])O1.[Na+].[Na+].[Na+].[Na+].[Na+].[Na+] [sodium hexametaphosphate]
Extracellular catalase activity of the fermentation broth [1, 3]: 15700 U/mL | increase of enzyme activity from that of the control procedure [1, 3]: 16.3% | Extracellular catalase activity of the fermentation broth [1, 4]: 18600 U/mL | increase of enzyme activity from that of the control procedure [1, 4]: 37.7% | Extracellular catalase activity of the fermentation broth [1, 5]: 19200 U/mL | increase of enzyme activity from that of the control procedure [1, 5]: 42.2% | Extracellular catalase activity of the fermentation broth [1, 6]: 19700 U/mL | increase of enzyme activity from that of the control procedure [1, 6]: 45.9% | Extracellular catalase activity of the fermentation broth [1, 7]: 16900 U/mL | increase of enzyme activity from that of the control procedure [1, 7]: 25.2% | percentage of remaining extracellular catalase activity of the stored fermentation broth ([2]; 5 g/L added at 36 hours of fermentation, unpurified broth stored at 25° C. for 12 hours): 84.4% | broth storage stability improved ([2]; 5 g/L added at 36 hours, stored at 25° C. for 12 hours, versus control culture procedure (56.1%)): 28.3%
